# Assay results reported in patent publication US6410009B1, “Pharmaceutical composition for treating hepatitis B virus (HBV) infection” (Hadasit Medical Research Services & Development Co., Ltd., priority 1997, dated 2002).
# Legend:
# HBV [1] = experiment: HBV-DNA by PCR in sera of chimeric mice after intrasplenic injection of HepG2-derived cell lines incubated with HBV with or without hIL6; format: in vivo, SCID>BNX chimeric mice; conditions: HepG2-hIL6R cells incubated with HBV in the presence of hIL6
# Description: Following incubation, the various mixtures were injected intrasplenically to the chimeric mice to generate HCC foci in the liver, as shown in FIG. 4.
# All cell lines grew in T25 flasks supplemented with DMEM medium, enriched with 10% fetal bovine serum. For infection experiments, cells were trypsinized and washed twice with PBS, followed by incubation with HBV-positive human sera ([…]) in the presence or absence of hIL6 (500 ng/ml) in 1-2 ml of DMEM. After 2-4 h incubation at 37° C., 4×10^6 cells/ml, 0.5 ml/mouse were injected intrasplenically to 8-10 SCID>BNX mice in each group. Animals were splenectomized following the injection.
# Mice were bled at two weekly intervals for 3 months, and DNA was extracted from 100 μl sera. The DNA was subjected to PCR amplification. The DNA extraction and the PCR method applied are described in the legend of FIG. 3.
# HBV [2] = experiment: HBV infection of human hepatocellular carcinoma cell line HuH7; format: cell-based; conditions: hIL-6 500 ng/ml
# Description: HBV infection protocol of human hepatocellular carcinoma cell line HuH7: Human sera were screened for the presence of HBV DNA sequences. Positive sera were analyzed quantitatively for viral particle concentration, as described by A. Klein, J. Clin. Microb., vol. 35, pp. 1897-1899 […]. Sera containing over 108 particles per ml were selected for infection experiments. The infection experiments included the following groups: Group 1—Cells were incubated with HBV without the addition of hIL-6 in the presence of polybrene 2 mg/ml, for 90 min at 37° C., in a 5% CO2 shaking incubator, in a total volume of 1.5 to 2 ml. Group 2—Cells were incubated with 1 ml of HBV positive serum, in the presence of hIL-6 (500 ng/ml) and polybrene 2 mg/ml, for 90 min at 37° C., in a 5% CO2 incubator, in a total volume of 1.5 to 2 ml. Group 3—Cells were incubated with 1 ml of HBV positive serum, in the presence of the cytokine hyper-IL-6 (HIL-6), 1.5 mg/ml, and polybrene 2 mg/ml, for 90 min at 37° C., in a 5% CO2 shaking incubator, in a total volume of 1.5 to 2 ml. The preparation of the cytokine hyper-IL-6 (HIL-6) is described in M. Fischer, et al., Nat. Biotechnol., vol. 15, pp. 142-145 (1997); T. Rakemann et al., J. Biol. Chem., vol. 274, pp. 1257-1266 (1999); P. Schirmacher et al., Am. J. Pathol., vol. 153, pp. 639-648 (1998). […]
# HBV [3] = experiment: HBV viremia in SCID>BNX chimeric mice transplanted with normal human liver fragments incubated ex-vivo with HBV-positive sera with hIL6
# Description: A fragment of normal human liver from a patient with no indication of any HBV-related markers or disease, was incubated ex-vivo with a high titer HBV DNA-positive serum prior to transplantation under the kidney capsule of the chimeric animals. HBV DNA sequences were undetectable by PCR from two different genomic regions in any of these animals during the month following transplantation.
# However, when liver tissue originating from the same patients was incubated ex-vivo with the above-mentioned HBV DNA-positive sera together with hIL6, HBV DNA sequences were detected from day 16 to day 31, in sera of about 50% of the transplanted animals.
# Pre-exposure of liver tissue to hIL6 prior to incubation with HBV ex-vivo, increased infection to about 90% of the animals. […]
# The 50 μl PCR reaction volume contained 10 pmole of each oligonucleotide primer in reaction buffer (10 mM Tris-HCl, pH 8.3, 50 mM KCl, 2.0 mM MgCl2, 0.01 % (w/v) gelatin, 250 μM of dATP, dGTP, dCTP, dTTP and 0.5 u of Taq polymerase. The reaction mixtures were overlaid with 30 μl of mineral oil. PCR cycles included 94° C. for 1 min., 55° C. for 1 min. and 72° C. for 3 min., 35 repeated cycles. 10 μl of reaction mixture was analyzed on a 2% agarose gel. Oligonucleotides used for the pre-core/core amplification were: […]
substance,measurement,setting,value
hIL6: human interleukin 6,time after transplantation at which HBV-DNA sequences could be detected in serum,HBV [1],13 days
same,HBV infection of HuH7 cells,HBV [2],enhanced
same,transplanted animals with HBV DNA sequences detected in sera,"HBV [3]; liver tissue incubated ex-vivo with HBV DNA-positive sera together with hIL6 (500 ng/ml), day 16 to day 31",about 50%
same,animals infected,HBV [3]; pre-exposure of liver tissue to hIL6 prior to incubation with HBV ex-vivo,about 90%
